Earlier results on 2 compounds are cited in US20200357489A1, “DEEP LEARNING-BASED QUICK AND PRECISE HIGH-THROUGHPUT DRUG SCREENING SYSTEM” (Shanghai Tongji Hospital, priority 2018, published 2020).

Where two headings read alike, the source gives them in different places.

Regarding `COc1cc([C@@H]2c3cc4c(cc3[C@@H](O[C@@H]3O[C@@H]5CO[C@@H](C)O[C@H]5[C@H](O)[C@H]3O)[C@H]3COC(=O)[C@H]23)OCO4)cc(OC)c1O` [VP16, etoposide], the efficacy classification result is “Low effcacy” in the series on A549 cells (50 μg/ml VP16), “Moderate” in the series with A549 cells (100 μg/ml VP16) and “High efficacy” in the series on A549 cells (200 μg/ml VP16).
Regarding `COc1cc(/C=C/C(=O)CC(=O)/C=C/c2ccc(O)c(OC)c2)ccc1O` [Cur, curcumin], the efficacy classification entry is “Low effcacy” in the series with HepG2 cells (5 μg/ml Cur), “Moderate” with HepG2 cells (10 μg/ml Cur) and “High efficacy” in the series with HepG2 cells (20 μg/ml Cur).
